Measured values reported in US20260138961A1, “MODULATORS OF MITOCHONDRIAL DNA REPLICATION” (Pretzel Therapeutics, Inc., priority 2022, published 2026).

Molecular target: T1, POLγA:A467T (Homo sapiens, UniProt P54098, A467T)
T1 sequence (P54098 1-1239 A467T): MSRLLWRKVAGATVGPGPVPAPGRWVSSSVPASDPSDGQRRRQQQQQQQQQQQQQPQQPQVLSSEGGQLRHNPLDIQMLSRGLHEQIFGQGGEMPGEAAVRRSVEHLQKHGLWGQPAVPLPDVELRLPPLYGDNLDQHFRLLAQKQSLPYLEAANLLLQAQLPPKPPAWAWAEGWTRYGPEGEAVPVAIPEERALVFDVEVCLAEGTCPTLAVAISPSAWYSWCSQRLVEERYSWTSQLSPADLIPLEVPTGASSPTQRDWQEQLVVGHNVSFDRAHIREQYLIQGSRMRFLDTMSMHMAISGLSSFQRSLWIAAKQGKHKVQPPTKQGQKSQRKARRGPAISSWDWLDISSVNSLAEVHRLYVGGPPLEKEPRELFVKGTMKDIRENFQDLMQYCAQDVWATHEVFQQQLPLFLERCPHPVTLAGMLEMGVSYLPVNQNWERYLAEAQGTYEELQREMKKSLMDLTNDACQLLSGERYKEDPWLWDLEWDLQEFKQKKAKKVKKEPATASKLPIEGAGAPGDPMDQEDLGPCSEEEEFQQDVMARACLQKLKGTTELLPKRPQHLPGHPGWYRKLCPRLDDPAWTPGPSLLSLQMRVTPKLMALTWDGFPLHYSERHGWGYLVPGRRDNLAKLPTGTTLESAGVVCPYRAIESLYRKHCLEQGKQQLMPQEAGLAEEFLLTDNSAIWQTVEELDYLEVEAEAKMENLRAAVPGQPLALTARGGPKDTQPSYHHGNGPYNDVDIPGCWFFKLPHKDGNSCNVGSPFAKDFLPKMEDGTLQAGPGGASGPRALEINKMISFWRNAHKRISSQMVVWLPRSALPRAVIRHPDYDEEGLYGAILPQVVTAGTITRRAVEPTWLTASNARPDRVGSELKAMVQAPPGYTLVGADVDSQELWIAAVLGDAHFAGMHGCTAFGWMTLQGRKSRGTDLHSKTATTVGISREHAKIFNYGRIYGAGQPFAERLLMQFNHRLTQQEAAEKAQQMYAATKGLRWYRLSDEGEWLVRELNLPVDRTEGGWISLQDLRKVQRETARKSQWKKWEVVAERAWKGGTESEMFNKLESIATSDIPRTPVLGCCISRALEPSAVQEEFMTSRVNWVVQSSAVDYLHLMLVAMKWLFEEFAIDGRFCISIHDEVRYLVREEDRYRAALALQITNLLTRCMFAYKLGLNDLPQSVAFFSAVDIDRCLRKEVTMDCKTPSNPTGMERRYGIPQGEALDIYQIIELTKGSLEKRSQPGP
T1 sequence (Q9UHN1 1-485 partner): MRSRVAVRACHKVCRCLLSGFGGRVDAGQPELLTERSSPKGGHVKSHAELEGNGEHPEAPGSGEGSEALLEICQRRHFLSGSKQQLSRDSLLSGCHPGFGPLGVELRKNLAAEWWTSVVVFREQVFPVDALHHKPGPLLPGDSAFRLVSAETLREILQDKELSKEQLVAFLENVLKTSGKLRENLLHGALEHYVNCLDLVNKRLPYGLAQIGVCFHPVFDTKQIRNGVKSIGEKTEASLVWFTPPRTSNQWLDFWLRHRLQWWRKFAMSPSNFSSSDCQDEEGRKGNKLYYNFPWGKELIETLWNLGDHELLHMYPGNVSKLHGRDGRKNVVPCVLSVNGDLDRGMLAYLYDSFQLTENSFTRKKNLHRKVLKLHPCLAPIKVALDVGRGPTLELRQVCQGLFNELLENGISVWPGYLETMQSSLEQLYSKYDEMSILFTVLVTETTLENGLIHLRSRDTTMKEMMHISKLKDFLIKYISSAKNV
Assay: DNA polymerization assay, POLγA:A467T mutant
Type: biochemical
Details: stimulation of polymerase activity, primed M13mp18 ssDNA, 37° C. 2 hours; read-out: A467T AC50

AC50 | SMILES
32 µM | Cc1nc2ccc(NS(=O)(=O)c3cc(C)c(Cl)cc3C)cc2o1 [Example 70, 4-chloro-2,5-dimethyl-N-(2-methylbenzo[d]oxazol-6-yl)benzenesulfonamide]
> 100 µM | Cc1ccc(C)c(S(=O)(=O)Nc2cccc(C(=O)N3CCSCC3)c2)c1 [Example 24, 2,5-dimethyl-N-(3-(thiomorpholine-4-carbonyl)phenyl)benzenesulfonamide]
> 100 µM | Cc1ccc(C)c(S(=O)(=O)Nc2cccc(C(=O)N(C)Cc3ccccc3)c2)c1 [Example 26, N-benzyl-3-((2,5-dimethylphenyl)sulfonamido)-N-methylbenzamide]
91 µM | Cc1cc(S(=O)(=O)Nc2cccc(C(=O)N3CCCC34CC4)c2)c(C)cc1Cl [Example 162, N-(3-(4-azaspiro[2.4]heptane-4-carbonyl)phenyl)-4-chloro-2,5-dimethylbenzenesulfonamide]
> 100 µM | Cc1cc(S(=O)(=O)Nc2cccc(C(=O)N3CCC[C@H]3C)c2F)c(C)cc1Cl [Example 57, (R)-4-chloro-N-(2-fluoro-3-(2-methylpyrrolidine-1-carbonyl)phenyl)-2,5-dimethylbenzenesulfonamide]
> 100 µM | Cc1cc(NS(=O)(=O)c2cc(C)ccc2C)cc(C(=O)N2CCCC[C@H]2C)c1 [Example 42, (R)-2,5-dimethyl-N-(3-methyl-5-(2-methylpiperidine-1-carbonyl)phenyl)benzenesulfonamide]
> 100 µM | Cc1cc2c(NS(=O)(=O)c3cc(C)c(Cl)cc3C)cccc2[nH]1 [Example 37, 4-chloro-2,5-dimethyl-N-(2-methyl-1H-indol-4-yl)benzenesulfonamide]
> 100 µM | Cc1cc(S(=O)(=O)Nc2cn(-c3ccccc3)cn2)c(C)cc1Cl [Example 169, 4-chloro-2,5-dimethyl-N-(1-phenyl-1H-imidazol-4-yl)benzenesulfonamide]
11 µM | Cc1cc(-c2cccc(NS(=O)(=O)c3cc(C)c(Cl)cc3C)c2)n[nH]1 [Example 66, 4-chloro-2,5-dimethyl-N-(3-(5-methyl-1H-pyrazol-3-yl)phenyl)benzenesulfonamide]
> 100 µM | Cc1cc(S(=O)(=O)Nc2nc(-c3ccccc3)co2)c(C)cc1Cl [Example 157, 4-chloro-2,5-dimethyl-N-(4-phenyloxazol-2-yl)benzenesulfonamide]
> 100 µM | Cc1cc(S(=O)(=O)Nc2cccc(C(=O)N3CCC[C@H]3C(C)C)c2)c(C)cc1Cl [Example 67, (S)-4-chloro-N-(3-(2-isopropylpyrrolidine-1-carbonyl)phenyl)-2,5-dimethylbenzenesulfonamide]
> 100 µM | Cc1cc(S(=O)(=O)Nc2ccc(F)c(C(=O)N3CCC[C@H]3C)c2)c(C)cc1Cl [Example 49, (R)-4-chloro-N-(4-fluoro-3-(2-methylpyrrolidine-1-carbonyl)phenyl)-2,5-dimethylbenzenesulfonamide]
> 100 µM | Cc1ccc(C)c(S(=O)(=O)Nc2cccc(C(=O)N(C)CC3CC3)c2)c1 [Example 33, N-(cyclopropylmethyl)-3-((2,5-dimethylphenyl)sulfonamido)-N-methylbenzamide]
> 100 µM | Cc1cc(S(=O)(=O)Nc2csc(-c3ccncc3)n2)c(C)cc1Cl [Example 176, 4-chloro-2,5-dimethyl-N-(2-(pyridin-4-yl)thiazol-4-yl)benzenesulfonamide]
> 100 µM | Cc1cc(S(=O)(=O)Nc2cn(Cc3ccccc3)cn2)c(C)cc1Cl [Example 168, N-(1-benzyl-1H-imidazol-4-yl)-4-chloro-2,5-dimethylbenzenesulfonamide]
> 100 µM | CC(=O)N1CCC(c2nc(NS(=O)(=O)c3cc(C)c(Cl)cc3C)cs2)CC1 [Example 163, N-(2-(1-acetylpiperidin-4-yl)thiazol-4-yl)-4-chloro-2,5-dimethylbenzenesulfonamide]

AC50 | SMILES
> 100 µM | COCCN(C)C(=O)c1cccc(NS(=O)(=O)c2cc(C)c(Cl)cc2C)c1 [Example 58, 3-((4-chloro-2,5-dimethylphenyl)sulfonamido)-N-(2-methoxyethyl)-N-methylbenzamide]
> 100 µM | Cc1cc(S(=O)(=O)Nc2cccc(C(=O)N(C)CCO)c2)c(C)cc1Cl [Example 56, 3-((4-chloro-2,5-dimethylphenyl)sulfonamido)-N-(2-hydoxyethyl)-N-methylbenzamide]
> 100 µM | Cc1cc(S(=O)(=O)Nc2cccc(C(=O)N[C@H](C)CO)c2)c(C)cc1Cl [Example 51, (R)-3-((4-chloro-2,5-dimethylphenyl)sulfonamido)-N-(1-hydroxypropan-2-yl)benzamide]
> 100 µM | Cc1nc2cc(NS(=O)(=O)c3cc(C)c(Cl)cc3C)ccc2s1 [Example 71, 4-chloro-2,5-dimethyl-N-(2-methylbenzo[d]thiazol-5-yl)benzenesulfonamide]
> 100 µM | Cc1c(Cl)cccc1S(=O)(=O)Nc1csc(-c2ccccc2)n1 [Example 154, 3-chloro-2-methyl-N-(2-phenylthiazol-4-yl)benzenesulfonamide]
> 100 µM | Cc1ccc(C)c(S(=O)(=O)Nc2cccc(C(N)=O)c2)c1 [Example 27, 3-((2,5-dimethylphenyl)sulfonamido)benzamide]
> 100 µM | Cc1cc(S(=O)(=O)Nc2cccc(C(=O)NCCO)c2)c(C)cc1Cl [Example 53, 3-((4-chloro-2,5-dimethylphenyl)sulfonamido)-N-(2-hydroxyethyl)benzamide]
> 100 µM | O=S(=O)(Nc1cccc(-c2nccs2)c1)c1ccc(Cl)cc1 [Example 59, 4-chloro-N-(3-(thiazol-2-yl)phenyl)benzenesulfonamide]
15 µM | CC[C@@H]1CCCN1C(=O)c1cccc(NS(=O)(=O)c2cc(C)c(Cl)cc2C)c1 [Example 65, (R)-4-chloro-N-(3-(2-ethylpyrrolidine-1-carbonyl)phenyl)-2,5-dimethylbenzenesulfonamide]
> 100 µM | Cc1ccc(C)c(S(=O)(=O)Nc2cccc(C(=O)N3CCCCCC3)c2)c1 [Example 32, N-(3-(azepane-1-carbonyl)phenyl)-2,5-dimethylbenzenesulfonamide]
> 100 µM | Cc1cc(S(=O)(=O)Nc2cccc(C(=O)N3CCN(C)CC3)c2)c(C)cc1Cl [Example 52, 4-chloro-2,5-dimethyl-N-(3-(4-methylpiperazine-1-carbonyl)phenyl)benzenesulfonamide]
> 10 µM | Cc1cc(S(=O)(=O)Nc2cnn(-c3ccccc3)n2)c(C)cc1Cl [Example 171, 4-chloro-2,5-dimethyl-N-(2-phenyl-2H-1,2,3-triazol-4-yl)benzenesulfonamide]
> 100 µM | Cc1ccc(C)c(S(=O)(=O)Nc2cccc(C(=O)NCc3ccccc3)c2)c1 [Example 28, N-benzyl-3-((2,5-dimethylphenyl)sulfonamido)benzamide]
> 100 µM | Cc1ccc(C)c(S(=O)(=O)Nc2cccc(C(=O)N3CCOCC3)c2)c1 [Example 29, 2,5-dimethyl-N-(3-(morpholine-4-carbonyl)phenyl)benzenesulfonamide]
3 µM | Cc1cc(S(=O)(=O)Nc2csc(C(=O)N3CCC[C@@H]3C)n2)c(C)cc1Cl [Example 175, (S)-4-chloro-2,5-dimethyl-N-(2-(2-methylpyrrolidine-1-carbonyl)thiazol-4-yl)benzenesulfonamide]
> 10 µM | Cc1cc(S(=O)(=O)Nc2cn(C)c(-c3ccccc3)n2)c(C)cc1Cl [Example 170, 4-chloro-2,5-dimethyl-N-(1-methyl-2-phenyl-1H-imidazol-4-yl)benzenesulfonamide]
